Laboratory results published in ChEMBL document CHEMBL3988442, “University of Dundee, Small-Polar-MMV Screening Library” (2021).
“And” between values parts separate entries of the source, which are not always exact repeats. Equal entries are not always repeated.

What was measured:
[1] = target: T1, Arginase-2, mitochondrial (Homo sapiens, UniProt P78540); assay: in vitro enzyme assay to detect the production of urea directly proportional to the activity of Arginase II; assay type: functional
T1 sequence (P78540 whole entry): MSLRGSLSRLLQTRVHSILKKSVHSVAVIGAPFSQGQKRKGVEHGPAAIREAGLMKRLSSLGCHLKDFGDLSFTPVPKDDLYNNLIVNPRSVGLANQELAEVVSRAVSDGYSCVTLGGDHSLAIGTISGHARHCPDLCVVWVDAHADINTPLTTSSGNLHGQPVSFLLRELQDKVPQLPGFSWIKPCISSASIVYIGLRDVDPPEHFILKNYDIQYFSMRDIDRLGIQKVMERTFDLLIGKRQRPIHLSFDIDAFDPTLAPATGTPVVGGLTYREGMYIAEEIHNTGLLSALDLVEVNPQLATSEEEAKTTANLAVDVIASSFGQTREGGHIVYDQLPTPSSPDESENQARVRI

[2] = Trypanosoma cruzi proteasome luciferase counter-screen; assay type: functional, N/A
Schistosoma mansoni = assay: High throughput screening of compounds against Schistosoma mansoni motility; assay type: functional; design: dose or concentration left out as unconfirmed
Proteasome subunit beta = target: T2, Proteasome subunit beta (Trypanosoma cruzi, UniProt O96673); assay: Trypanosoma cruzi proteasome chymotrypsin-like activity (TcProtChymo) assay.; assay type: functional
T2 sequence (O96673 whole entry): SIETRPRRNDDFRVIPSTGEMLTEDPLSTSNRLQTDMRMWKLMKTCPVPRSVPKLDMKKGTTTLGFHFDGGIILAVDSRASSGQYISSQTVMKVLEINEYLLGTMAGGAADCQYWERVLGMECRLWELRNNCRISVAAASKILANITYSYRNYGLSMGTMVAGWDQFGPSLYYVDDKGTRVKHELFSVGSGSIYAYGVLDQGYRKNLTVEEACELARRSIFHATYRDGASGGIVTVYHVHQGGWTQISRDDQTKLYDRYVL

[3] = target: Polyketide synthase Pks13 (Mycobacterium tuberculosis (strain ATCC 25618 / H37Rv), UniProt I6X8D2); assay: Mycobacterium tuberculosis Polyketide synthase 13 Thioesterase (PKS13); assay type: functional
Lysine--tRNA ligase = Lysine--tRNA ligase (Plasmodium falciparum (isolate 3D7), UniProt Q8IDJ8); assay: Pf-KRS-1 (Lysyl-RNA Synthetase-1, KRS-1, cytosolic KRS) from Plasmodium falciparum. Inhibitor assay, 384 well plate, luminescence read.; assay type: functional
[4] = target: T3, Coenzyme A biosynthesis bifunctional protein CoaBC (Mycobacterium tuberculosis (strain ATCC 25618 / H37Rv), UniProt P9WNZ1); assay: Biomol Green assay for MtCoaBC inhibitor, OD650 read; assay type: functional
T3 sequence (P9WNZ1 whole entry): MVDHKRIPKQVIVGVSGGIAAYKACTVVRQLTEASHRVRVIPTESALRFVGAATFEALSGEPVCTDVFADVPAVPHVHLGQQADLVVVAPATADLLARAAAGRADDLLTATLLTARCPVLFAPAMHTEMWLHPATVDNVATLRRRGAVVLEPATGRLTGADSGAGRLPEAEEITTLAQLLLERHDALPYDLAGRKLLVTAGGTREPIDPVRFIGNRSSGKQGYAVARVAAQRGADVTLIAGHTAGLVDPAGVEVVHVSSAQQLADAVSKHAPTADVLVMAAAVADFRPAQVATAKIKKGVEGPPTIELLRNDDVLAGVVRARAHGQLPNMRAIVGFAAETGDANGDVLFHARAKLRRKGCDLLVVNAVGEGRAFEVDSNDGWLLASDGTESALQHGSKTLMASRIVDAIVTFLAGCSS

[5] = target: Chromo domain-containing protein 1 (Saccharomyces cerevisiae (strain ATCC 204508 / S288c) (Baker's yeast), UniProt P32657); assay: ScCHD-1 Enzyme Inhibition Assay; assay type: functional
[6] = microbe, parasite or virus in culture; conditions: Mycobacterium tuberculosis, 72 h, read-out: pIC50 (converted)
[7] = microbe, parasite or virus in culture; conditions: Mycobacterium tuberculosis, 96 h, read-out: pIC50 (converted)
Histidine--tRNA ligase = target: T4, Histidine--tRNA ligase (Leishmania infantum, UniProt A4I591); assay: Leishmania infantum Histidine tRNA synthetase (LdHisRS); assay type: functional
T4 sequence (A4I591 whole entry): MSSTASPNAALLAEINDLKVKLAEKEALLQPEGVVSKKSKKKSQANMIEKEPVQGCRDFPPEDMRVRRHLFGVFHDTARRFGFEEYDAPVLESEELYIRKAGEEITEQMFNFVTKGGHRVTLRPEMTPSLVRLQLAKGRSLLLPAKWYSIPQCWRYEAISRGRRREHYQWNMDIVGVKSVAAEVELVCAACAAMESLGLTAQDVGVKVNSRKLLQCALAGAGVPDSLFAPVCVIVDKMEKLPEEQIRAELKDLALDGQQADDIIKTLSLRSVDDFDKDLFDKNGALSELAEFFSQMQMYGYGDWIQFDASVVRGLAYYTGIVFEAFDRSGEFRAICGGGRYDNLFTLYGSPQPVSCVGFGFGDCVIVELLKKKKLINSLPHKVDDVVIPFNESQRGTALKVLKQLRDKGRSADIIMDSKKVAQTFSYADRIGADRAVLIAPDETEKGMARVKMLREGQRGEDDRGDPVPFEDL

Sequence of Polyketide synthase Pks13 (I6X8D2 whole entry): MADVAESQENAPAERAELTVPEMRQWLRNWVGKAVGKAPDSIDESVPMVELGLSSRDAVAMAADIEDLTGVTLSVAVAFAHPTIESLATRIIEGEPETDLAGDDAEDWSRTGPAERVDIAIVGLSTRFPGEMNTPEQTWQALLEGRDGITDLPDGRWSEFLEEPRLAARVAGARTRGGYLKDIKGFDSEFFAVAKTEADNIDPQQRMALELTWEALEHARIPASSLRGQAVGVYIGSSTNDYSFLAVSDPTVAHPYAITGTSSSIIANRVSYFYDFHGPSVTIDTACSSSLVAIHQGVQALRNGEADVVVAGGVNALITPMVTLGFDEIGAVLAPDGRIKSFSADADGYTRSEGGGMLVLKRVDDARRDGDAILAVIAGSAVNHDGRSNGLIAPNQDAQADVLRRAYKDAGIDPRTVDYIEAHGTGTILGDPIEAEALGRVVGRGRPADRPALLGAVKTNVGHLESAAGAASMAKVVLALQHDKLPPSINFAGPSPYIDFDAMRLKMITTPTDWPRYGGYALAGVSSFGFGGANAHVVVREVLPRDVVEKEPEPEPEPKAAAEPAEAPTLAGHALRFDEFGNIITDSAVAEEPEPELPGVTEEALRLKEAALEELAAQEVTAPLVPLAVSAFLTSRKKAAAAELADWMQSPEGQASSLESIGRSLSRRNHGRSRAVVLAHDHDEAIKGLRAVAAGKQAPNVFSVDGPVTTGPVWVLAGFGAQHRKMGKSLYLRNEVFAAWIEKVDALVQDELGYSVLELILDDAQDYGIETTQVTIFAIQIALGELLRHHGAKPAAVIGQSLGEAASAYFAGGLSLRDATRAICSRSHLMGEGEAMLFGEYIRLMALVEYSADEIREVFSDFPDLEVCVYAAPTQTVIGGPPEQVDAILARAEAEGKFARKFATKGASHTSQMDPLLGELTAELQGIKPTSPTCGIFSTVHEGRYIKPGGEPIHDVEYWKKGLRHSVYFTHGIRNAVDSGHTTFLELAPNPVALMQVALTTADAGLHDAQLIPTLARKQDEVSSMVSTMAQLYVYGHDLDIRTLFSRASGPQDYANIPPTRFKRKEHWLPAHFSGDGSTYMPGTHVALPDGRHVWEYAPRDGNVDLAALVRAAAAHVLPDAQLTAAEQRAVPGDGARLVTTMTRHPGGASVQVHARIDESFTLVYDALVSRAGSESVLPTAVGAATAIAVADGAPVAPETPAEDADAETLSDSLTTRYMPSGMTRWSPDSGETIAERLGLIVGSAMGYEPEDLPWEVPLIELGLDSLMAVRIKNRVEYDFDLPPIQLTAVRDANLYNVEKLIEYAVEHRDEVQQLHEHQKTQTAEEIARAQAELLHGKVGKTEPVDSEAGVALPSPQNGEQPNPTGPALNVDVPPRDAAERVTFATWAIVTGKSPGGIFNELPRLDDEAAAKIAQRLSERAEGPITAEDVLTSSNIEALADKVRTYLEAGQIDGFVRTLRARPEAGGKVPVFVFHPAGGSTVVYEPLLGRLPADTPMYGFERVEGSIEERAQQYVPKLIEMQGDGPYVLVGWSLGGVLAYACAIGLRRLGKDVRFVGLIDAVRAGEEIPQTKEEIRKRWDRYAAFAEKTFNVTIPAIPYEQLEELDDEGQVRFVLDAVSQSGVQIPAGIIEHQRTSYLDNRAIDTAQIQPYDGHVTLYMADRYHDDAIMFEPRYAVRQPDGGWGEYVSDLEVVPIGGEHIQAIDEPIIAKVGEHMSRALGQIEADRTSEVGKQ
Sequence of Chromo domain-containing protein 1 (P32657 whole entry, the tested form may be a part): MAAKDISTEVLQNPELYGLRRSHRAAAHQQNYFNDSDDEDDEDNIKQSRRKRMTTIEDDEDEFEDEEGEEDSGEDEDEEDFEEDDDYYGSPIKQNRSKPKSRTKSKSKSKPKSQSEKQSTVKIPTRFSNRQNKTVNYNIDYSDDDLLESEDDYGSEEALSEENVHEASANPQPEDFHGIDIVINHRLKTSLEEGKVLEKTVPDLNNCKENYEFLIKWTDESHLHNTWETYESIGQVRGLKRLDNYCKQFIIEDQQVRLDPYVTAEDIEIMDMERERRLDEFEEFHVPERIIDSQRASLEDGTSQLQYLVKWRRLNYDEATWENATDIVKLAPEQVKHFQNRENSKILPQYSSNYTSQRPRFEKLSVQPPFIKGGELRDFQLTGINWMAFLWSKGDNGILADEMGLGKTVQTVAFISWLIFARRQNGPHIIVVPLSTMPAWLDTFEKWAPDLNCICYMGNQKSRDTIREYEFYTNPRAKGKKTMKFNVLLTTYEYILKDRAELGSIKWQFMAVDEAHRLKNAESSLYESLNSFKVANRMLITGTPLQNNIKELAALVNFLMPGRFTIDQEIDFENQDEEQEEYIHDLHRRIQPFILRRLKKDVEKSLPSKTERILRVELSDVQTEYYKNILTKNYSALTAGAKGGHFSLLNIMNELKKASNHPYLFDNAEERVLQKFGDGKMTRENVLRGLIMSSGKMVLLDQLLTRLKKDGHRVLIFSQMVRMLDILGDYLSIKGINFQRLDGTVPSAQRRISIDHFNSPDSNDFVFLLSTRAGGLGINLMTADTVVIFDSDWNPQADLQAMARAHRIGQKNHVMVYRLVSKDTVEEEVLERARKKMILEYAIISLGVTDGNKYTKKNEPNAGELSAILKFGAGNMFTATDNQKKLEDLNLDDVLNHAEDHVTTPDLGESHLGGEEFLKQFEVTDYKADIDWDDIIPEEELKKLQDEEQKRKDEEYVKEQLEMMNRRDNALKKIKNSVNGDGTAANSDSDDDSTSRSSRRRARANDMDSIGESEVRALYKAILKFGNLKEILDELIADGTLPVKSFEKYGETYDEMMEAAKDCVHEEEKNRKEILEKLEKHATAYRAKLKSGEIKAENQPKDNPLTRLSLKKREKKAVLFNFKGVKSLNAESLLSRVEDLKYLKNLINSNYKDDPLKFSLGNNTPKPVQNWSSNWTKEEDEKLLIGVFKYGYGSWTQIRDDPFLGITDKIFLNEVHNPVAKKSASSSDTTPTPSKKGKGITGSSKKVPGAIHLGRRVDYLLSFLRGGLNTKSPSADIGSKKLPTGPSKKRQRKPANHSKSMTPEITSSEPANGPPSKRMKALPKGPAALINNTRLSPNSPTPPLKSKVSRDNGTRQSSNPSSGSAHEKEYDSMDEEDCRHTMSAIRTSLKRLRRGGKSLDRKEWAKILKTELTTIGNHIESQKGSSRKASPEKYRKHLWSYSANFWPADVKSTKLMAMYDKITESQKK
Sequence of Lysine--tRNA ligase (Q8IDJ8 whole entry): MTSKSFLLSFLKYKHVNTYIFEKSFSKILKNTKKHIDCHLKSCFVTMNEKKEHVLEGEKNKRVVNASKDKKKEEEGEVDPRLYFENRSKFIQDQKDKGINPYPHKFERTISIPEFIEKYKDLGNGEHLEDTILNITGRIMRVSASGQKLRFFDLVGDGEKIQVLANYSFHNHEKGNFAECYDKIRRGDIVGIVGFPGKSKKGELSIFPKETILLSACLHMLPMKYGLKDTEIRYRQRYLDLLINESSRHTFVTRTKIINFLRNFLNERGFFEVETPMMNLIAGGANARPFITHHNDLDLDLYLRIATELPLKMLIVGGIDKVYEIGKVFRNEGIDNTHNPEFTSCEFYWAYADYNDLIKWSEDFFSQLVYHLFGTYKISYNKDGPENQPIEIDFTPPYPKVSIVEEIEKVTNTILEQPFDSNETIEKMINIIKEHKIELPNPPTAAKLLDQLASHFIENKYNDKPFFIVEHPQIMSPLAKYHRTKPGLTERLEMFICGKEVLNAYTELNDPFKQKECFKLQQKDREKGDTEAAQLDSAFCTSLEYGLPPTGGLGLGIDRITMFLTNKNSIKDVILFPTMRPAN

| Structure (SMILES) | IC50 [1] [µM] | further results |
| --- | --- | --- |
| CC1=Nc2c(c(=O)[nH]n2C2CCOCC2)C(c2cccc(Br)c2)S1 (stereo not drawn) | > 100 |  |
| O=C1CSC(c2ccsc2)c2c(n(C3CCOCC3)[nH]c2=O)N1 (stereo not drawn) | > 100 |  |
| COc1cccc(C(=O)NCC(O)c2cccs2)c1 (stereo not drawn) |  | pIC50 [2]: 4.037 and < 4; Percent Effect (Schistosoma mansoni): -12.61%; IC50 (Proteasome subunit beta): 16.9 µM and 18.4 µM |
| O=C(Cn1ccc2c(Cl)cccc21)N1CCC2(CC1)OCCO2 | > 100 |  |
| COC(=O)Cn1cccc(S(=O)(=O)N2CCC(C)CC2)c1=O | > 100 | IC50 [3]: > 100 µM |
| O=C(Cn1nc2c(cc1=O)CSCC2)NC(Cc1ccccc1)C(=O)O (stereo not drawn) | > 100 |  |
| O=c1[nH]c2c(c(=O)n1C1CCCCC1)CCC2Nc1ccccc1Cl (stereo not drawn) | > 100 | IC50 (Lysine--tRNA ligase): 14 µM |
| CNC(=O)[C@H]1C[C@@H]2CN(C(=O)c3ccco3)C[C@@H]2N1S(C)(=O)=O | > 100 |  |
| CCn1c(NCc2ccco2)nc2c(C)nn(C)c2c1=O | > 100 |  |
| O=C(CO)N1CCC(c2cncc(-c3cccc(Cl)c3)n2)CC1 | > 100 | IC50 [4]: > 30.2 µM |
| CN(C)c1ncc(CN2CCOC(C(=O)Nc3ccccc3)C2)cn1 (stereo not drawn) | > 100 |  |
| COc1cccc(CNCc2nnc3n2CC(C(F)(F)F)CC3)c1 (stereo not drawn) | > 100 |  |
| C[S+]([O-])CCCNC(=O)c1cc(Br)c2c(c1)OCCO2 (stereo not drawn) | > 100 |  |
| CS(=O)(=O)NCC(=O)N1CCCC1c1noc(C2CC2)n1 (stereo not drawn) | > 100 |  |
| O=C(COc1cccc(Br)c1)N1CCN(c2nccs2)CC1 | > 100 | IC50 [5]: > 29.5 µM |
| CCN(C)c1ccc(C(=O)N(CCOC)Cc2ccccn2)cc1 | > 100 |  |
| O=C(NCc1ccncc1)N(Cc1ccccc1F)C1CC1 | > 100 |  |
| Cc1nn(CCO)c(C)c1CNC1CCc2c(Cl)cccc21 (stereo not drawn) | > 100 |  |
| Cc1cc(S(=O)(=O)Nc2cccc(-n3cccc3)c2)sc1C(=O)O |  | pIC50 [2]: < 4; IC50 [3]: 2.38 µM and 0.803 µM; IC50 (Proteasome subunit beta): 16.4 µM and 18.9 µM; IC50 [4]: > 30.2 µM |
| Cc1cnc(CN(Cc2ccccc2)CC(O)c2cccs2)cn1 (stereo not drawn) | > 100 |  |
| COc1ccc(-c2nc(CN3CC(n4cc(C)cn4)C3)no2)cc1 | > 100 | IC50 [6]: 47 µM; IC50 [7]: 39.7 µM |
| Cc1cc(N2CCN(CC(=O)N(C)C)CC2)nc(-c2ccncc2)n1 |  | pIC50 [2]: < 4; IC50 (Histidine--tRNA ligase): > 100 µM; IC50 (Proteasome subunit beta): > 100 µM |
| Cc1nc(CCNC(=O)N2CCC(Cc3cnn(C)c3)C2)cs1 (stereo not drawn) | > 100 |  |
| CC(C)CN1CCC(NC(=O)c2ccc(F)cc2I)CC1 | > 100 | Percent Effect (Schistosoma mansoni): 28.14% |
